The experiment relates to ovarian cancer cell line ES-2. Description: MTT assay for anti-ovarian cancer (cell survival). The experiment is classed as cell-based. To be noted: Homo sapiens, ES-2 cells, 48 hours treatment, absorbance at 570 nm, read-out: IC50 (half inhibition concentration), inhibition of ovarian cancer cells. The protocol:
Exemplary Compound 1 was added into the culture media of ovarian cancer cell line ES-2 (a human ovarian cancer cell line) to determine the survival rates. Survival of cells was analyzed using MTT assay. Other suitable human ovarian cancer cell lines may be used by a skilled person in the art.
MTT assay is commonly used to analyze cell proliferation, survival rate of viable cells and cytotoxicity. MTT (3[4,5-dimethylthiazol-2-yl]-2,5-diphenyltetrazolium bromide) is a yellow dye which can be converted to water-insoluble purple formazan on the reductive cleavage of its tetrazolium ring by the succinate tetrazolium reductase in mitochondria of cells. The amount of formazan produced is used to detect the number of viable cells and calculate the survival rates.
The ES-2 cells were cultivated in McCoy' 5 A medium supplemented with 10% fetal bovine serum, 10 U/ml of Penicillin and 100 μg/ml of Streptomycin at 37° C., 5% CO2 for 24 hours. Proliferated cells were washed once with PBS, treated with 1× trypsin-EDTA, and centrifuged at 1200 rpm for 5 min. The supernatant was removed and the cell pellet was resuspended in 10 ml of fresh medium by gently shaking. Cells were seeded onto 96-well plates. […] The absorbances were measured at 570 nm with an ELISA Reader to determine the survival rates.
Background: Tetrazolium dyes change colour on reduction, which living cells bring about.

SMILES strings stand for the structures. In brackets after ≈: the same amount, converted by molar mass.

On to `COC1=C(OC)C(O)C(C/C=C(\C)CC/C=C(\C)CCC=C(C)C)C(C)C1=O` (stereo not shown) [Compound 1, 4-hydroxy-2,3-dimethoxy-6-methyl-5-(3,7,11-trimethyldodeca-2,6,10-trienyl)cyclohex-2-enone], for which the IC50 amounted to 0.8 µg/mL (≈ 2.05 µM).

For the origin of these results see US20130203861A1, “METHODS AND COMPOSITIONS FOR TREATING OVARIAN CANCER” (GOLDEN BIOTECHNOLOGY CORPORATION, priority 2009, published 2013).
